Compound	melting point [°C]
COc1cc2oc(=O)c(CCN3CCN(c4ccccc4OC)CC3)c(C)c2cc1OC	174 to 175
Cc1cc(C2(C(F)(F)F)CC(c3ccc(F)cc3)=NO2)ccc1NC(=O)OC(C)(C)C (stereo not given)	149 to 150
O=C(O)C1=Cc2cc(OC(F)(F)F)ccc2OC1C(F)(F)F (stereo not given)	118 to 120
O=C1CNC(=O)C(Cc2cccc(NCc3ccccc3)c2)N1 (stereo not given)	160 to 161
CCOC(=O)CS(=O)(=O)CCCC=C1SC=CS1	79.5 to 81
Cc1ccc2c(c1)OC(C(=O)O)Oc1ccccc1C2 (stereo not given)	149 to 152
CCOCCOc1ccc(-c2ccc3c(c2)C=C(C(=O)Nc2ccc(CN(C)C4CCOCC4)cc2)CCS3(=O)=O)cc1OCC	164 to 168
O=C1CCC(N2C(=O)c3cccc(CNC(=O)c4ccc(F)c(C(F)(F)F)c4)c3C2=O)C(=O)N1 (stereo not given)	171 to 173
CN1CCCCC1CCc1ccccc1NC(=O)c1ccc(F)cc1 (stereo not given)	116
CC(C)Nc1cccnc1N1CCN(C(=O)c2ccc(C(=O)NCCCN3CCOCC3)cc2)CC1	103
CCCCOCCOc1ccc(-c2ccc3c(c2)C=C(C(=O)O)CCN3CC2CCC2)cc1	110 to 112
CN1CC[C@@H]2CC(=O)c3cc(F)ccc3[C@H]2C1 (relative stereo)	> 250
C#CC1(O)CCN(CC=C(c2ccccc2)c2ccccc2)CC1	122 to 123
C[C@@H]1CCN(C(=O)OC(C)(C)C)C[C@@H]1N(C)C(=O)OC(C)(C)C	118
CCc1cc(C(=O)c2ccccc2Cl)c(-n2c(CNC(=O)c3ccc(Cl)c(Cl)c3)nnc2C2CCCCC2)s1	206 to 208
COc1ccc(C(O)CCS(=O)(=O)c2ccc(S(N)(=O)=O)s2)cc1 (stereo not given)	129 to 130
COC(=O)CCc1ccc(-n2ccn(-c3ccc(C(=N)NC(=O)OC)cc3)c2=O)cc1	> 260
COc1cnc(CS(C)=O)nc1OC(=O)N(C)C (stereo not given)	122
Cc1c(CNCCc2cc3cccc(F)c3n2C)ncn1S(=O)(=O)N(C)C	114 to 116
O=C1c2cccc3cc(F)cc(c23)C(=O)N1O	244 to 247
CC(=O)NNCC1CC2c3cccc4c3c(cn4C)CC2N(C)C1 (stereo not given)	190 to 192
O=C(O)Cc1ccc(NC(=O)CCc2cnn(-c3ccccc3)c2-c2ccccc2)cc1	199 to 201
CN(C)c1cccc2c(S(=O)(=O)Nc3ccc(I)nn3)cccc12	176 to 178
Cc1nn(C)c(C)c1Oc1cc(Cl)cc(C#N)c1	114 to 116

Compound	melting point [°C]
CC(=O)Oc1ccc2c(=O)c(C#N)c(C)oc2c1	140 to 141
O=C(O)CCCOc1ccc(Nc2ccccc2)cc1	110 to 111
N#Cc1ccc(CN2CCC(N3C(=O)Nc4ccccc4C3c3ccccc3)CC2)cc1 (stereo not given)	189 to 192
N#Cc1ccc2c(c1)Sc1ccc([N+](=O)[O-])cc1C=C2	234 to 236
CCCc1c[nH]c(-c2ccc(Cl)cc2)c1-c1ccc(Cl)cc1	90 to 93
Clc1nnc(Cl)c2c1CCCC2	148 to 150
Cc1ccc(C=NC2CCN(c3cc4c(cc3F)c(=O)c(C(=O)O)cn4-c3ccc(F)cc3)C2)cc1 (stereo not given)	233 to 234
Cc1nnc(-c2cc(O)c(O)c([N+](=O)[O-])c2)o1	245 to 246
COc1ccc(-c2cc3cc(F)c(F)cc3[nH]2)cc1NS(C)(=O)=O	254 to 256
CCNc1nc(N)nc2c1ncn2C1CC(N=[N+]=[N-])C(CO)O1 (stereo not given)	199 to 201
COc1ccc2c(c1Cl)c(CC(=O)O)c(C)n2C(=O)c1ccc(Cl)s1	169
Cc1cc(Cl)ccc1C(=O)CN(C(=O)C(C)Cl)c1ccccc1 (stereo not given)	128
CCOC(=O)C1CCC(n2nc(-c3c(-c4ccccc4)nn4ccccc34)ccc2=O)CC1 (stereo not given)	156 to 160
CCCC1=C(C#N)C(c2cccc(Cl)c2Cl)c2c[nH]nc2N1 (stereo not given)	242
N#Cc1c2ccccc2c(-c2cc(Br)c(O[C@@H](Cc3ccccc3)C(=O)O)c(Br)c2)c2c1sc1ccccc12	176 to 178
CCCCOc1c(CNC(=O)OC(C)(C)C)n(CC(C)C)c(=O)c2ccc(-c3ccco3)cc12	157 to 158
CN(C)C(=O)C(C)(C)n1cc(-c2ccccc2)c(-c2ccccc2)n1	148 to 150
CC(C)(O)c1ccc(C(Cc2ccc(F)cc2)C(=O)Nc2nc3ccccc3o2)cc1 (stereo not given)	87 to 90
CC(NC(=O)C1CCCN1C(=O)CNP(=O)(Cc1ccccc1)Cc1ccccc1)C(=O)OCc1ccccc1 (stereo not given)	77 to 80
N#Cc1c(N2CCCCC2)cc(-c2cccc3ccccc23)c2c1-c1ccccc1C2=O	180 to 182
COc1cc2c(c3c1c(=O)c1cc4ccccc4cc1n3C)C=CC(C)(C)O2	188
CCCC(C)C(=O)Nc1cccc(O)c1 (stereo not given)	136 to 137
CCCCCCCCCCCCCCCCNc1ccc(C(=O)OC)cc1	74 to 75
CCC(C)COC(=O)C1(OC(=O)c2ccc(O)cc2)C=CC=CC1 (stereo not given)	90.8 to 92.6

Compound	melting point [°C]
COc1ccc(CCCOc2c(C)cc(-c3noc(C(F)(F)F)n3)cc2C)cn1	62 to 64
O=C(COc1ccccc1)NC1CNC1=O (stereo not given)	153 to 155
Cc1c(N2CCOCC2)c(F)cc2c(=O)c(C(=O)O)cn(C3CC3)c12	228
Cc1cc(-c2ccc(C#N)cc2)c(C)n1Cc1cnc(Cl)c(CO)c1	128 to 129
COC(COc1cc(-n2ncc(C(F)(F)F)c(C)c2=O)c(F)cc1Cl)OC	86
CC1CCN(c2nc(Nc3cc(C4CC4)n[nH]3)c3ccccc3n2)CC1	190
CC(C)=CCCC(C)CCS(=O)c1nc2ccccc2[nH]1 (single isomer, unassigned; (+))	122 to 124
COc1cc(COc2nn(C)cc2C(C)O)ccc1OCc1nc(-c2ccccc2)oc1C (stereo not given)	94 to 95
CCC(C)(C)N=NC(C)(C#N)CCC(=O)O (stereo not given)	60 to 62
CCOCc1nc2c(N)nc3ccc(O)cc3c2n1CCCCNC(=O)Nc1ccccc1	218 to 221
CN(C=O)C1C(O)CC2C3CCc4cc(O)ccc4C3CCC21C (stereo not given)	272 to 276
CCOC(=O)CC1=NCC(c2cccc(OCc3ccc4ccccc4n3)c2)O1 (stereo not given)	94 to 95
O=[N+]([O-])c1cc(C(F)(F)F)ccc1Sc1nc(-c2ccccc2)c(-c2ccccc2)[nH]1	234 to 236
O=C(N[C@H](Cc1cccc(OC(F)(F)C(F)F)c1)[C@@H](O)c1csc(-c2ccccc2)n1)c1ccc(F)c2ccccc12 (racemic)	148 to 150
CC1(C)NC(=O)N(c2ccc([N+](=O)[O-])cc2)C1=O	176 to 177
O=C(O)COc1ccc(CC2SC(=O)NC2=O)cc1 (stereo not given)	181 to 183
CCCCC(CC)C(=O)Nc1ccc2ccn(Cc3ccc(C(=O)CS(=O)(=O)c4ccccc4)cc3OC)c2c1 (stereo not given)	131 to 133
O=C1C2CC(CN(Cc3ccccc3)C2)CN1Cc1ccccc1 (stereo not given)	82.5 to 83.5
CC1(C)COc2cc3ccccc3c(=O)n21	91 to 92
C=CC(=O)c1cc(OC)c(OC)c(OC)c1	46 to 47
CC(C)(C)N(Cc1ccccc1)C(=O)C=c1sc2n(c1=O)Cc1ccccc1N=2	195 to 197
Cc1nccn1CCCNC(=O)c1cccnc1Cl	126 to 128
Cc1ccc(N2CN(C)CNC2=S)c(C)c1	140 to 143
CC(CO)n1cnc2c(I)ncnc21 (stereo not given)	193 to 194

Compound	melting point [°C]
O=c1[nH]c2cc(F)c(F)cc2c(=O)n1CCCN1CC=C(c2ccc(Cl)cc2)CC1	204 to 205
Cc1ccc(C(=O)NCc2cccnc2)c(Nc2ccc3cn[nH]c3c2)n1	170 to 172
CN(Cc1ccccc1)Cc1c(-c2ccc([N+](=O)[O-])cc2)sc2c1c(=O)c(C(=O)c1ccccc1)cn2Cc1c(F)cccc1F	197 to 199
Cc1cc(-c2nc3cc(F)cc(F)c3s2)ccc1N	201 to 203
N#Cc1cc(C(=O)O)cc(O)c1O	269 to 271
O=C(O)Cc1ccc2c(c1)C(=O)c1cc(F)ccc1CO2	173 to 175
Oc1ccc2c(ccn2Nc2ccncc2F)c1	70 to 73
O=C(c1ccccc1)N(c1ccccc1)c1ccc(OCc2ccccc2)cc1	141 to 143
CCOC(=O)c1cn(C)c2cnc3cc(N4CCCC4)c(F)cc3c2c1=O	270
CC(SC1COC(c2ccc(C(=O)Nc3ccc(C#N)c(Cl)c3)cc2)OC1)C(O)(Cn1cncn1)c1ccc(F)cc1F (stereo not given)	115
CC(=O)Oc1cc2nc[nH]c(=O)c2cc1OCc1ccccc1	231 to 233
COc1cccc([C@H]2O[C@H](CC(=O)NCP(=O)(O)O)C(=O)N(CC(C)(C)C)c3ccc(Cl)cc32)c1OC	152 to 155
CC(c1cccc2c1Sc1c(O[Si](c3ccccc3)(c3ccccc3)C(C)(C)C)cccc1N2C)N1C(=O)c2ccccc2C1=O (stereo not given)	182 to 184
COc1cc(Nc2c(C#N)cnc3cc(OCc4cccs4)c(OC)cc23)c(Cl)cc1Cl	194 to 196
COC(=O)c1ccccc1S(=O)(=O)NC(=O)Nc1nc(C)c2ccccc2n1	182 to 183
O=C(OCCOc1ccccc1)c1sc(Cl)nc1C(F)(F)F	70 to 72
CCOC(=O)c1ccc2c(c1)C(=O)NC(C(Cl)(Cl)Cl)N2 (stereo not given)	243 to 244
Cc1cc2c(cc1Br)N1CCc3cccc(c31)C(N1CCN(C)CC1)=N2	177
CN1CCN(Cc2ccccc2C(F)(F)F)C(C2=NCCN2)C1 (stereo not given)	163 to 165
COc1ccc(CCN(C)CCCc2ccc(NC(=O)c3cccc4c(=O)c5ccccc5[nH]c34)cc2)cc1OC	114
Cc1ccc(S(=O)(=O)OCC2CCc3ccc4[nH]c(C(F)(F)F)nc4c3O2)cc1 (stereo not given)	160
N#Cc1cc(C(F)(F)F)[nH]c1-c1ccsc1Br	170
CC(C)=NOCc1nc2c(N)nc3ccccc3c2n1CCCNS(C)(=O)=O	178 to 179
